6 molecules from patent US10065972B2, “Bicyclic or tricyclic heterocyclic compound” (MITSUBISHI TANABE PHARMA CORPORATION, priority 2014, dated 2018) can be followed below.

SMILES strings stand for the structures. pIC50: −log10 of the molar value.

human recombinant KAT-II, sequence (Q8N5Z0 30-425): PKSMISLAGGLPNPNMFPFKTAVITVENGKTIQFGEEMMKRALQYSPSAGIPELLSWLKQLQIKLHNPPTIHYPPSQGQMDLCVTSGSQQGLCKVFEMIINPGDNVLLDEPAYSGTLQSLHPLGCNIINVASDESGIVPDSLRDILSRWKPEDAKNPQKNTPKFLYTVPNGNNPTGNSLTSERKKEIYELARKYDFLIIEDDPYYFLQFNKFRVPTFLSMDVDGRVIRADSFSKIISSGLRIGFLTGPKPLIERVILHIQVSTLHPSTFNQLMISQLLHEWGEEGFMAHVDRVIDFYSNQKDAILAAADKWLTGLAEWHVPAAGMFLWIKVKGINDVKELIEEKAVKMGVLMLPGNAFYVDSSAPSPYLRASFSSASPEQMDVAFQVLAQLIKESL

The test addresses human recombinant KAT-II (Homo sapiens (Human), UniProt Q8N5Z0). Description: KAT-II inhibitory test. The format is biochemical. The following applies: 3.0 μmol/L kynurenine, 37° C., 1 hr, pH 8.0; kynurenic acid quantified by HPLC. The gist of the method:
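E. coli-expressed His/MBP-tagged human KAT-II (2.0 ng/μL) incubated with 3.0 μmol/L kynurenine and 10 μmol/L pyridoxal phosphate in Tris-acetate pH 8.0, 1 hr at 37 °C. Reaction stopped with TCA. Kynurenic acid quantified by reversed-phase HPLC with fluorescence detection (ex 354/em 460 nm), duplicate at each concentration.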
As for `O=C(NCc1ccccc1)[C@H]1CCCN1c1ccc2nc(-c3ccccc3F)[nH]c(=O)c2n1` [Example 713, (R)-N-benzyl-1-[2-(2-fluorophenyl)-4-oxo-3,4-dihydropyrido[3,2-d]pyrimidin-6-yl]pyrrolidine-2-carboxamide], the pIC50 was 7.06.
Turning to `O=C(NCc1ccccc1)[C@H]1CCCN1c1ccc2nc(-c3ccccc3)cc(=O)n2n1` [Example 714, (R)-N-benzyl-1-(4-oxo-2-phenyl-4H-pyrimido[1,2-b]pyridazin-7-yl)pyrrolidine-2-carboxamide], the pIC50 was 6.23.
Consider `CCCc1cc(=O)n2nc(N3CCC[C@@H]3C(=O)NC3(c4ccccc4)CC3)ccc2n1` [Example 718, (R)-1-(4-oxo-2-propyl-4H-pyrimido[1,2-b]pyridazin-7-yl)-N-(1-phenylcyclopropyl)pyrrolidine-2-carboxamide], for which the pIC50 is 6.51.
`CC(C)c1cc(=O)n2nc(N3CCC[C@@H]3C(=O)NCc3ccccc3)ccc2n1` [Example 720, (R)-N-benzyl-1-[4-oxo-2-(propan-2-yl)-4H-pyrimido[1,2-b]pyridazin-7-yl]pyrrolidine-2-carboxamide]: the pIC50 is 6.26.
For the molecule `CC(C)c1nc2ccc(N3CCC[C@@H]3C(=O)NCc3ccccc3)nn2c(=O)c1F` [Example 722, (R)-N-benzyl-1-[3-fluoro-4-oxo-2-(propan-2-yl)-4H-pyrimido[1,2-b]pyridazin-7-yl]pyrrolidine-2-carboxamide], the pIC50 is 7.05.
As for `O=C(NCc1ccccc1)[C@H]1CCCN1c1nc2c(=O)[nH]c(N3CCCCC3)nc2s1` [Example 728, (R)-N-benzyl-1-[7-oxo-5-(piperidin-1-yl)-6,7-dihydro[1,3]thiazolo[5,4-d]pyrimidin-2-yl]pyrrolidine-2-carboxamide], the figure is 7.62.
